Results: patent publication US11746110B2, “Alkynyl (hetero) aromatic ring compounds used for inhibiting protein kinase activity” (Shenzhen TargetRx, Inc., priority 2018, dated 2023)

Experiments:
ABL = ABL (Homo sapiens (Human), UniProt P00519); assay: Biochemical kinase analysis, ABL; details: kinase inhibition assay
Experimental: (§1) Reagents and materials: ABL (ThermoFisher, Cat. No. PV3585), ABL^T315I(Thermo Fisher, Cat. No. PR7429B), Ret (Carna, Cat. No. 08-159-10 ug), RET^V804M, Active (Signalchem, Cat. No. R02-12GG), ATP (Sigma, Cat. No. A7699-1G), DMSO (Sigma, Cat. No. D2650), 96-well plate (Corning, Cat. No. 3365), 384-well plate (Greiner, Cat. No. 784076), buffer solution (Thermo Fisher, Cat. No. PR4876B).
(§2) Compound formulation: The test compounds were dissolved in DMSO to prepare a 20 mM stock solution. Before use, the compounds were diluted in DMSO to 0.1 mM, and diluted into 11 concentrations with a 3-fold gradient. When addition, dilutions of 4-fold final concentration were then made with buffer solution.
(§3) Kinase assay method: After preparing the buffer, the enzyme was mixed with pre-formulated and diluted compounds of different concentrations in duplicate for each concentration, and placed at room temperature for 30 minutes. The corresponding substrate and ATP were added thereto, and reacted at room temperature for 60 minutes (both a negative and a positive control were set). After the reaction, antibody was added for detection, Evnvision detection was carried out after 60 minutes incubation at room temperature, and data was collected. Data analysis and fitting were made according to XLfit5 software.

ABL^T315I = ABL^T315I (Homo sapiens (Human), UniProt P00519, T315I); assay: Biochemical kinase analysis, ABL T315I; details: kinase inhibition assay
Experimental: as §1, §2, §3

Ba/F3 parental cells = assay: Cell proliferation analysis, Ba/F3 parental; assay type: cell-based; details: Mus musculus, BaF3, 72 h; 3 days, CellTiter-Glo, 8 ng/ml IL-3
Experimental: (§4) The inhibitory effect of the example compounds on Ba/F3 parental, Ba/F3 Bcr-Abl^T315I, K562, Ba/F3 KIF5B-RET, BaF3 FLT3-ITD cell activity was determined.
(§5) Materials and reagents: RPMI-1640 medium (GIBCO, Catalog No. A10491-01), fetal bovine serum (GIBCO, Catalog No. 10099141), antibiotics (Penicillin-Streptomycin), IL-3(PeproTech), promycin; cell lines: Ba/F3 parental, Ba/F3 Bcr-Abl^T315I, Ba/F3 KIF5B-RET, BaF3 FLT3-ITD, (purchased from American type culture collection, ATCC), K562 live cell detection kit CellTiter-Glo4(Promega, Catalog No. G7572), 96-well black wall transparent flat bottom cell culture plate (Corning, Catalog No. 3340).
(§6) Test method: 1. Preparation of cell plate: Ba/F3 parental, Ba/F3 Bcr-Abl^T315I K563, Ba/F3 KIFSB-RET, BaF3 FLT3-ITD cells were respectively seeded in 96-well plates, and 8 ng/ml IL-3 was added to the Ba/F3 cells, and the cell plates were placed in a carbon dioxide incubator and cultured overnight. 2. The test compounds were dissolved in DMSO, 9 compound concentrations were made with a 3.16-fold gradient dilution in triplicate. 3. Treatment of the cells with compounds: The compounds were transferred to the cell plate with a starting concentration of 10 μM. The cell plate was placed in a carbon dioxide incubator for 3 days. 4. Detection: CellTiter-Glo agent was added to the cell plate, and incubated at room temperature for 30 minutes to stabilize the luminous signal. PerkinElmer Envision multi-label analyzer was used for reading, wherein A represents IC50≤50 nM, B represents IC50 is 50-100 nM, C represents IC50 is 100-500 nM, D represents IC50 is 500-1000 nM, […].

K562 cells = assay: Cell proliferation analysis, K562; assay type: cell-based; details: Homo sapiens, K562, 72 h; 3 days, CellTiter-Glo
Experimental: as §4, §5, §6

Ba/F3 BCR-ABL cells = assay: Cell proliferation analysis, Ba/F3 BCR-ABL; assay type: cell-based; details: Mus musculus, BaF3, 72 h; 3 days, CellTiter-Glo
Experimental: [Worded in the source for another variant; this variant is reported under the same test.] as §4, §5, §6

[1] = tested on: Ba/F3 Bcr-Abl^T315I cells; assay: Cell proliferation analysis, Ba/F3 Bcr-Abl T315I; assay type: cell-based; details: Mus musculus, BaF3, 72 h; 3 days, CellTiter-Glo; read-out: IC50 (nM) Ba/F3 BCR-ABL^T315
Experimental: as §4, §5, §6

Ret = Ret (Homo sapiens (Human), UniProt P07949); assay: Biochemical kinase analysis, Ret; details: kinase inhibition assay
Chain of Ret (P07949 29-1114): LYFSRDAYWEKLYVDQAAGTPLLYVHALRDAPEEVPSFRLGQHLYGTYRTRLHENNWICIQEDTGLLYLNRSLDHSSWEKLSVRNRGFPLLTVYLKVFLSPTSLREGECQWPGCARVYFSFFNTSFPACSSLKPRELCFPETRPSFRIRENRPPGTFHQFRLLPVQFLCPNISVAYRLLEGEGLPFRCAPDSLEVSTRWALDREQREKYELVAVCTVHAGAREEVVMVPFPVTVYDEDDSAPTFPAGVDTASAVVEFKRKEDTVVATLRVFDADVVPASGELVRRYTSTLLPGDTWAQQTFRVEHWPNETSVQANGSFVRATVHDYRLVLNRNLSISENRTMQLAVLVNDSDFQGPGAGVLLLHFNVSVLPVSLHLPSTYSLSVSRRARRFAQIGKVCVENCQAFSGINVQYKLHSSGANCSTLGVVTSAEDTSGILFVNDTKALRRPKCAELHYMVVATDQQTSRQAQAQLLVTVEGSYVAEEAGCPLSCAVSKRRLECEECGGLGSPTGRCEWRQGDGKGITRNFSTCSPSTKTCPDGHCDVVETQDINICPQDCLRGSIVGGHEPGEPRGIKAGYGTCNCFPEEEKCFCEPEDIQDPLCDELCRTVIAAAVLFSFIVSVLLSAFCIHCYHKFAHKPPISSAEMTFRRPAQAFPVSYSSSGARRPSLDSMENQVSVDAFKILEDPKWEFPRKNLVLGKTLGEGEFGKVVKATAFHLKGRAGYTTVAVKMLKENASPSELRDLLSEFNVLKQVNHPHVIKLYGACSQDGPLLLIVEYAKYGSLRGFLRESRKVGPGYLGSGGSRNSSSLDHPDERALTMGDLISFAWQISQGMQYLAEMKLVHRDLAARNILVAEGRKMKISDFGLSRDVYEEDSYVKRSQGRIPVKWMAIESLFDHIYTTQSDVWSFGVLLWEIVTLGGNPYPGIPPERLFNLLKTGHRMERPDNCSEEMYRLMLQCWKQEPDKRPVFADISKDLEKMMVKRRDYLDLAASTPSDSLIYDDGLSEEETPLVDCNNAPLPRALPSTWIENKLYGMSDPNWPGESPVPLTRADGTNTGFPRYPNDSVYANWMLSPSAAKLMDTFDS
Experimental: as §1, §2, §3

RET^V804M = RET^V804M (Homo sapiens (Human), UniProt P07949, V804M); assay: Biochemical kinase analysis, RET V804M; details: kinase inhibition assay
Chain of RET^V804M (P07949 29-1114 V804M): as the sequence (P07949 29-1114) above, with V776M counted along it
Experimental: as §1, §2, §3

Ba/F3 KIF5B-RET cells = assay: Cell proliferation analysis, Ba/F3 KIF5B-RET; assay type: cell-based; details: Mus musculus, BaF3, 72 h; 3 days, CellTiter-Glo
Experimental: as §4, §5, §6

BaF3 FLT3-ITD cells = assay: Cell proliferation analysis, BaF3 FLT3-ITD; assay type: cell-based; details: Ba/F3 FLT3-ITD, 72 h; 3 days, CellTiter-Glo
Experimental: as §4, §5, §6

Structure (SMILES) | IC50 (ABL) | IC50 (ABL^T315I) | IC50 (Ba/F3 parental cells) | IC50 (K562 cells) | IC50 (Ba/F3 BCR-ABL cells) | IC50 [1] | IC50 (Ret) | IC50 (RET^V804M) | IC50 (Ba/F3 KIF5B-RET cells) | IC50 (BaF3 FLT3-ITD cells)
Cc1ccc(NC(=O)c2ccc(C)c(C(F)(F)F)c2)cc1C#Cc1cnc2c(Nc3cnn(C)c3)ccnn12 [Example 13, 4-methyl-N-(4-methyl-3-((8-((1-methyl-1H-pyrazol-4-yl)amino)imidazo[1,2-b]pyridazin-3-yl)ethynyl)phenyl)-3-(trifluoromethyl)benzamide] | 9.88 nM | 67.2 nM | 1220 nM | 1.3 nM | 15.6 nM | 162 nM |  |  |  | 
Cc1ccc(NC(=O)c2ccc(CN3CCN(C)CC3)c(C(F)(F)F)c2)cc1C#Cc1cnc2c(Nc3cnn(C)c3)nccn12 [Example 5, N-(4-methyl-3-((8-((1-methyl-1H-pyrazol-4-yl)amino)imidazo[1,2-a]pyrazin-3-yl)ethynyl)phenyl)-4-((4-methylpiperazin-1-yl)methyl)-3-(trifluoromethyl)benzamide] | 3.33 nM | 3.44 nM | 340 nM | 1.32 nM | 10.6 nM | 88 nM |  |  |  | 
Cc1ccc(NC(=O)c2cccc(C(F)(F)F)c2)cc1C#Cc1cnc2c(Nc3cnn(C)c3)nccn12 [Example 1, N-(4-methyl-3-((8-((1-methyl-1H-pyrazol-4-yl)amino)imidazo[1,2-a]pyrazin-3-yl)ethynyl)phenyl)-3-(trifluoromethyl)benzamide] | 3.91 nM | 9.05 nM | 838 nM | 0.28 nM | 5.63 nM | 15 nM | 0.88 nM | 12.2 nM | 10.1 nM | 17.7 nM
Cc1ccc(NC(=O)Nc2ccc(Cl)c(C(F)(F)F)c2)cc1C#Cc1cnc2c(Nc3cnn(C)c3)nccn12 [Example 7, 1-(4-chloro-3-(trifluoromethyl)phenyl)-3-(4-methyl-3-((8-((1-methyl-1H-pyrazol-4-yl)amino)imidazo[1,2-a]pyrazin-3-yl)ethynyl)phenyl)urea] |  |  | 620 nM | 4.53 nM |  | 291 nM |  |  |  | 
COCCn1cc(Nc2nccn3c(C#Cc4cc(NC(=O)c5ccnc(C(F)(F)F)c5)ccc4C)cnc23)cn1 [Example 9, N-(3-((8-((1-(2-methoxyethyl)-1H-pyrazol-4-yl)amino)imidazo[1,2-a]pyrazin-3-yl)ethynyl)-4-methylphenyl)-2-(trifluoromethyl)isonicotinamide] | 0.93 nM | 19.9 nM | 4280 nM | 0.32 nM | 2.75 nM |  |  |  |  | 
Cc1ccc(NC(=O)c2cc(C(C)(C)C)on2)cc1C#Cc1cnc2c(Nc3cnn(C)c3)nccn12 [Example 6, 5-(tert-butyl)-N-(4-methyl-3-((8-((1-methyl-1H-pyrazol-4-yl)amino)imidazo[1,2-a]pyrazin-3-yl)ethynyl)phenyl)isoxazole-3-carboxamide] | 1.6 nM | 65 nM | 5230 nM | 6.56 nM | 9.61 nM |  |  |  |  | 
Cc1ccc(NC(=O)c2cccc(C(F)(F)F)c2)cc1C#Cc1cnc2c(Nc3cnn(C)c3)ccnn12 [Example 11, N-(4-methyl-3-((8-((1-methyl-1H-pyrazol-4-yl)amino)imidazo[1,2-b]pyridazin-3-yl)ethynyl)phenyl)-3-(trifluoromethyl)benzamide] | 4.18 nM | 57.2 nM | 770 nM | 0.26 nM | 4.76 nM | 144 nM |  |  |  | 
Cc1ccc(NC(=O)Nc2ccc(Cl)c(C(F)(F)F)c2)cc1C#Cc1cnc2c(Nc3cnn(C)c3)ccnn12 [Example 16, 1-(4-chloro-3-(trifluoromethyl)phenyl)-3-(4-methyl-3-((8-((1-methyl-1H-pyrazol-4-yl)amino)imidazo[1,2-b]pyridazin-3-yl)ethynyl)phenyl)urea] |  |  | 1370 nM | 12.1 nM |  |  |  |  |  | 
Cc1cn(-c2cc(C(=O)Nc3ccc(C)c(C#Cc4cnc5c(Nc6cnn(C)c6)nccn45)c3)cc(C(F)(F)F)c2)cn1 [Example 4, 3-(4-methyl-1H-imidazol-1-yl)-N-(4-methyl-3-((8-((1-methyl-1H-pyrazol-4-yl)amino)imidazo[1,2-a]pyrazin-3-yl)ethynyl)phenyl)-5-(trifluoromethyl)benzamide] | 4.93 nM | 7.69 nM | 314 nM | 3.8 nM | 19.7 nM | 50.2 nM |  |  |  | 
Cc1ccc(NC(=O)c2ccnc(C(F)(F)F)c2)cc1C#Cc1cnc2c(Nc3cnn(C)c3)nccn12 [Example 3, N-(4-methyl-3-((8-((1-methyl-1H-pyrazol-4-yl)amino)imidazo[1,2-a]pyrazin-3-yl)ethynyl)phenyl)-2-(trifluoromethyl)isonicotinamide] | 1.89 nM | 27.5 nM | 1340 nM | 0.16 nM | 4.75 nM | 101 nM | 0.25 nM | 23.1 nM | 26.4 nM | 67.7 nM
Cc1ccc(C(=O)Nc2cccc(C(F)(F)F)c2)cc1C#Cc1cnc2c(Nc3cnn(C)c3)ccnn12 [Example 14, 4-methyl-3-((8-((1-methyl-1H-pyrazol-4-yl)amino)imidazo[1,2-b]pyridazin-3-yl)ethynyl)-N-(3-(trifluoromethyl)phenyl)benzamide] | 4.91 nM | 12.6 nM | 1550 nM | 0.97 nM | 9.02 nM | 24.9 nM | 0.49 nM | 9.92 nM | 15.8 nM | 23 nM
COCCn1cc(Nc2nccn3c(C#Cc4cc(NC(=O)c5cccc(C(F)(F)F)c5)ccc4C)cnc23)cn1 [Example 8, N-(3-((8-((1-(2-methoxyethyl)-1H-pyrazol-4-yl)amino)imidazo[1,2-a]pyrazin-3-yl)ethynyl)-4-methylphenyl)-3-(trifluoromethyl)benzamide] | 2.55 nM | 6.47 nM | 927 nM | 0.96 nM | 6.29 nM | 35.8 nM |  |  |  | 
Cc1ccc(NC(=O)c2ccnc(C(F)(F)F)c2)cc1C#Cc1cnc2c(Nc3cnn(C)c3)ccnn12 [Example 12, N-(4-methyl-3-((8-((1-methyl-1H-pyrazol-4-yl)amino)imidazo[1,2-b]pyridazin-3-yl)ethynyl)phenyl)-2-(trifluoromethyl)isonicotinamide] | 2.24 nM |  | 1890 nM | 0.27 nM | 7.75 nM |  |  |  |  | 
COCCn1cc(Nc2nccn3c(C#Cc4cc(NC(=O)c5cc(C(C)(C)C)on5)ccc4C)cnc23)cn1 [Example 10, 5-(tert-butyl)-N-(3-((8-((1-(2-methoxyethyl)-1H-pyrazol-4-yl)amino)imidazo[1,2-a]pyrazin-3-yl)ethynyl)-4-methylphenyl)isoxazole-3-carboxamide] | 2.7 nM |  | 2680 nM | 1.27 nM | 17.3 nM | 56.1 nM |  |  |  | 
